Assays:
[1] = target: nucleotide binding site (NBS); settings: read-out: previously reported Kd for IBA/NBS interactions; cited from earlier work
[2] = tested on: CD20 negative myeloma cell lines, U266, H929, and MM.1S; test: CD20 antigen detection flow cytometry assay; format: cell-based; settings: conjugate 200 nM, photocrosslinked at 1 J/cm^2; U266, H929, MM.1S
Procedure: IM9, U266, H929, and MM.1S cell lines were cultured in RPMI 1640 media containing 10% FBS, 2 mM L-glutamine, 100 U/mL penicillin, and 100 μg/mL streptomycin. […] IBA-FITC was photocrosslinked to Rituximab at the indicated UV energies. All cell lines were used at a density of 0.5×10^6 cells/mL in blocking buffer (1.5% BSA in PBS pH 7.4) and initially incubated for 30 min on ice. […] Samples were washed three times and analyzed on a Guava easyCyte 8HT flow cytometer.

| Compound | Kd [1] [µM] | binding to CD20 negative cell lines [2] |
| --- | --- | --- |
| O=C(O)CCCc1c[nH]c2ccccc12 [IBA, indole-3-butyric acid] | 1 to 8 |  |
| Rituximab-IBA-FITC conjugate |  | negligible binding |

Source: patent US11116848B2, “Selective UV crosslinking of peptides and functional moieties to immunoglobulins” (University of Notre Dame du Lac, priority 2013, dated 2021)
